Assay in all cases: NCI anticancer screen, dose series, 48 h
Test [1] deals with A498.
Test [2] relates to COLO 205.
Test [3] has as its system HCC 2998.
In test [4] the test system is HCT-15.
The subject of test [5] is K562.
Test [6] relates to KM12.
The subject of test [7] is NCI-H460.
Test [8] deals with OVCAR-4.
Test [9] deals with OVCAR-5.
Test [10] relates to PC-3.
The subject of test [11] is SF-268.
The subject of test [12] is SK-MEL-2.
Test [13] deals with SK-OV-3.
The subject of test [14] is SNB-19.
For test [15], the system named is SNB-75.
The subject of test [16] is SW-620.
Test [17] has as its system U-251.
Test [18] deals with UACC-62.
Test [19] deals with HL-60.
Test [20] relates to MOLT-4.

Each structure is given as a SMILES string.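 Five concentrations, 48 hours, 96-well plates. GI50 = concentration required for 50% inhibition of growth.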 Activity calls are given as the source filed them. No stated cut-off is given here; in the data, active = GI50 up to about 1.1 µM and inactive = higher.

Consider `Cc1ccc(S(=O)(=O)NC(=O)OC23COCN2COC3)cc1`, for which the GI50 in [1] was > 100 µM (inactive); in [2], > 100 µM (inactive); in test [3], > 100 µM (inactive); in test [4], over 100 µM; in [5] it was > 100 µM (inactive); in test [6], > 100 µM (inactive). Moreover, the GI50 in test [7], in test [8], in test [9], in test [10], in test [11] and in test [12] was > 100 µM (inactive) throughout. In addition, the GI50 was > 100 µM (inactive) in [13]; > 100 µM (inactive) in [14]; > 100 µM (inactive) in test [15]; 81.7 µM (inactive) in test [16]; > 100 µM (inactive) in test [17]; > 100 µM (inactive) in test [18].

Take `c1ccc(OCc2nnc(CCCCCCCCc3nnc(COc4ccccc4)o3)o2)cc1`: the GI50 was > 100 µM (inactive) in [1]; > 100 µM (inactive) in [2]; 28.6 µM (inactive) in [3]; over 100 µM in [4]; > 100 µM (inactive) in [19]; > 100 µM (inactive) in [5]. For the same compound, the GI50 in [6], in [20], in [7], in test [8], in test [9] and in [10] was > 100 µM (inactive) each time. Besides, the GI50 was 99.5 µM (inactive) in test [11]; > 100 µM (inactive) in [12]; 32.8 µM (inactive) in test [13]; 73.8 µM (inactive) in test [14]; 28.1 µM (inactive) in test [15]; > 100 µM (inactive) in test [16]. For the same compound, the GI50 in [17] was 32.2 µM (inactive).

With `Cc1ccc2c3c1[C@@H]1O[C@@H]1c1cccc(c1-3)[C@@H]1O[C@H]21`, the GI50 in [1] is 19.1 µM (inactive); in [2], 15.8 µM (inactive); in [4], 15.3 µM; in [5], 4.29 µM (inactive); in test [6], 12.4 µM (inactive); in test [20], 3.96 µM (inactive). Also, the GI50 was 17.5 µM (inactive) in [8]; 18.1 µM (inactive) in [9]; 15 µM (inactive) in test [10]; 12.8 µM (inactive) in test [11]; 16.1 µM (inactive) in test [12]; 26.7 µM (inactive) in test [13]. For the same compound, the GI50 is 19.8 µM (inactive) in [14], 2.38 µM (inactive) in test [15], 11.9 µM (inactive) in test [17] and 20 µM (inactive) in test [18].

In the case of `COc1ccc(C(=C2C(=O)N(c3ccccc3)C(=O)C2=C(C)C)c2ccc(OC)cc2)cc1`, the GI50 in test [1] is 2.94 µM (inactive); in [2] it was 2.96 µM (inactive); in test [3], 5.5 µM (inactive); in [4] it was 2.92 µM; in test [19] it was 0.998 µM (active); in [5], 3.27 µM (inactive). Besides, the GI50 in test [6] was 3.53 µM (inactive); in test [20], 2.54 µM (inactive); in [7] it was 4.22 µM (inactive); in test [8] it was 3.23 µM (inactive); in test [9], 8.69 µM (inactive); in test [10] it was 4.33 µM (inactive). Also, the GI50 in test [11] was 9.95 µM (inactive); in test [12] it was 3.97 µM (inactive); in [13], 4.79 µM (inactive); in test [14], 4.07 µM (inactive); in test [15], 2.87 µM (inactive); in test [16], 3.19 µM (inactive). Further, the results for the GI50 in test [17] and in test [18] were 3.37 µM (inactive) and 3.41 µM (inactive), respectively.

For the compound `COc1ccc(/C=C2\C[C@H]3[C@@H]4CCC5=C/C(=N/O)CC[C@]5(C)[C@H]4CC[C@]3(C)\C2=N\O)cc1OC`, the GI50 in test [1] was 33.1 µM (inactive); in [3], 10.7 µM (inactive); in test [4] it was 14.7 µM; in test [19] it was 4.72 µM (inactive); in test [5] it was 6.92 µM (inactive); in test [6] it was 8.04 µM (inactive). Also, the GI50 in test [20] is 5.79 µM (inactive); in [7], 3.61 µM (inactive); in test [8], 11 µM (inactive); in test [9], 41 µM (inactive); in [10], 10.7 µM (inactive); in [11], 51.6 µM (inactive). Besides, the GI50 in [12] was 15.9 µM (inactive); in [13], 39.3 µM (inactive); in [14] it was 52.6 µM (inactive); in [15] it was > 100 µM (inactive); in test [16], 34.2 µM (inactive); in test [18], 22.2 µM (inactive).

For the compound `Cc1ccnc2nc(N)ccc12`, the GI50 in test [1] is > 100 µM (inactive); in test [2], > 100 µM (inactive); in [4] it was over 100 µM; in test [19], > 100 µM (inactive); in test [5], > 100 µM (inactive); in [6], > 100 µM (inactive). Moreover, the GI50 in [20], in [7], in test [8], in [9], in test [10] and in test [11] was > 100 µM (inactive) in each case. For the same compound, the GI50 in test [12] is > 100 µM (inactive); in [13] it was > 100 µM (inactive); in test [14], > 100 µM (inactive); in test [15], 66.7 µM (inactive); in test [16], > 100 µM (inactive); in test [17], > 100 µM (inactive). Besides, the GI50 in [18] is > 100 µM (inactive).

`O=C(O)C(F)(F)C(F)(F)C(F)(F)C(F)(F)C(F)(F)C(F)(F)C(F)(F)C(F)(F)F`: the GI50 in [1] is 38.3 µM (inactive); in [2], 48.5 µM (inactive); in test [3], 86.9 µM (inactive); in test [4] it was 27.4 µM; in test [19], 25.2 µM (inactive); in test [5] it was 27.1 µM (inactive). The GI50 was 53.1 µM (inactive) in test [6]; > 100 µM (inactive) in test [20]; 81.5 µM (inactive) in test [7]; 73.3 µM (inactive) in [8]; 33.3 µM (inactive) in test [9]; 42.1 µM (inactive) in test [10]. The GI50 is 54.7 µM (inactive) in test [11]; 29.6 µM (inactive) in [13]; 39.6 µM (inactive) in test [14]; 71.8 µM (inactive) in [15]; 52.5 µM (inactive) in test [16]; 26.4 µM (inactive) in test [17]. For the same compound, the GI50 in test [18] is > 100 µM (inactive).

For `Cc1cc(=O)nc(S(=O)(=O)NC(=S)Nc2ccc(Cl)cc2)[nH]1`, the GI50 in [1] was > 100 µM (inactive); in test [2], > 100 µM (inactive); in test [3], > 100 µM (inactive); in test [4], over 100 µM; in [19], > 100 µM (inactive); in test [6] it was > 100 µM (inactive). Also, the GI50 in test [20] was 10.2 µM (inactive); in test [7] it was > 100 µM (inactive); in test [8], > 100 µM (inactive); in test [9], > 100 µM (inactive); in test [10], > 100 µM (inactive); in test [11], > 100 µM (inactive). For the same compound, the GI50 in test [12] is > 100 µM (inactive); in [13], > 100 µM (inactive); in test [14], > 100 µM (inactive); in test [15], 64 µM (inactive); in [16] it was > 100 µM (inactive); in test [17], > 100 µM (inactive). Besides, in [18], the GI50 was > 100 µM (inactive).

For the compound `O=C(O)c1ccc(C(=O)O)c2c(C(=O)O)ccc(C(=O)O)c12`, the GI50 in [1] was > 100 µM (inactive); in test [2], > 100 µM (inactive); in [4] it was over 100 µM; in test [5], > 100 µM (inactive); in [6] it was > 100 µM (inactive); in test [20], > 100 µM (inactive). In addition, the GI50 in [7], in test [8], in test [9], in test [10], in test [11] and in test [12] was > 100 µM (inactive) throughout. In addition, the GI50 in test [13], in [14], in test [15], in test [16], in [17] and in test [18] was > 100 µM (inactive) in each case.

Consider `CC=C/C=C/[C@@H]1O[C@](O)([C@H](CC)C(=O)NC/C=C/C=C(\C)[C@@H](OC)[C@@H](C)[C@@H]2O[C@H](/C=C/C=C/C=C(\C)C(=O)c3c(O)cc[nH]c3=O)[C@H](O)[C@@H]2O)[C@H](O)[C@H](O)C1(C)C`, for which the GI50 is > 100 µM (inactive) in test [1]; > 100 µM (inactive) in [3]; over 100 µM in test [4]; 93.5 µM (inactive) in [19]; > 100 µM (inactive) in test [5]; 72.6 µM (inactive) in test [6]. The GI50 was 73.6 µM (inactive) in [20]; 92.7 µM (inactive) in test [7]; > 100 µM (inactive) in [8]; > 100 µM (inactive) in test [9]; > 100 µM (inactive) in test [10]; > 100 µM (inactive) in test [11]. The GI50 in test [12], in [13], in test [14], in [15], in test [16] and in test [17] was > 100 µM (inactive) in each case. Moreover, in [18], the GI50 was > 100 µM (inactive).

The record behind these values is ChEMBL document CHEMBL1201862, “PubChem BioAssay data set” (2004).
